# Laboratory results as given in paper PMC3008316 (Antiviral research, 2009).
# Like-named read-outs stand apart in the source and are kept apart here.
# Assays:
# [1] = system: PICV, strain An 4763; format: in vivo, Syrian hamsters
# [2] = system: Junin virus (JUNV) vaccine strain Candid 1
# [3] = system: PTV, Adames strain; test: microbe, parasite or virus in culture; details: Punta Toro virus, Vero 76, read-out: EC90 ± SD (VYR)
# [4] = system: Tacaribe virus (TCRV), strain TRVL 11573
# [5] = system: PTV, Adames strain; design: species or system Syrian hamsters; details: hamster, in vivo
# [6] = system: Sandfly fever virus, Naples strain (SFNV); test: microbe, parasite or virus in culture; details: sandfly fever Sicilian virus, Vero 76, read-out: EC90 ± SD (VYR)
# [7] = system: RVFV vaccine strain MP-12; test: microbe, parasite or virus in culture; details: Rift Valley fever virus, Vero 76, read-out: EC50 ± SD (CPER)
# [8] = system: PICV, strain An 4763
# [9] = system: phleboviruses (RVFV, PTV, SFNV); test: organism not typed; format: cell-based
# [10] = system: Sandfly fever virus, Naples strain (SFNV)
# [11] = system: PTV, Adames strain; design: species or system C57BL/6 mice; details: mouse, in vivo
# [12] = system: Sandfly fever virus, Naples strain (SFNV); remark: listed apart in the source
# [13] = system: RVFV vaccine strain MP-12
# [14] = system: Tacaribe virus (TCRV), strain TRVL 11573; test: microbe, parasite or virus in culture; details: Mammarenavirus tacaribeense, Vero 76, read-out: EC90 ± SD (VYR)
# [15] = system: Junin virus (JUNV) vaccine strain Candid 1; test: microbe, parasite or virus in culture; details: Mammarenavirus juninense, Vero, read-out: EC90 ± SD (VYR)
# [16] = system: Junin virus (JUNV) vaccine strain Candid 1; remark: listed apart in the source
# [17] = rats; ref Y. Furuta, unpublished data; cited from earlier work
# [18] = system: RVFV vaccine strain MP-12; remark: listed apart in the source
# [19] = system: PICV, strain An 4763; test: microbe, parasite or virus in culture; details: Pichinde virus, Vero, read-out: EC90 ± SD (VYR)
# [20] = system: Sandfly fever virus, Naples strain (SFNV); test: microbe, parasite or virus in culture; details: sandfly fever Sicilian virus, Vero 76, read-out: EC50 ± SD (CPER)
# [21] = system: Tacaribe virus (TCRV), strain TRVL 11573; remark: listed apart in the source
# [22] = system: PTV, Adames strain
# [23] = system: PICV, strain An 4763; test: microbe, parasite or virus in culture; details: Pichinde virus, Vero, read-out: EC50 ± SD (CPER)
# [24] = in vitro; details: monkey, CC50 ± SD
# [25] = system: PICV, strain An 4763; remark: listed apart in the source
# [26] = system: PTV, Adames strain; test: microbe, parasite or virus in culture; details: Punta Toro virus, Vero 76, read-out: EC50 ± SD (CPER)
# [27] = system: RVFV vaccine strain MP-12; test: microbe, parasite or virus in culture; details: Rift Valley fever virus, Vero 76, read-out: EC90 ± SD (VYR)
# [28] = system: PTV, Adames strain; remark: listed apart in the source
# [29] = system: Junin virus (JUNV) vaccine strain Candid 1; test: microbe, parasite or virus in culture; details: Mammarenavirus juninense, Vero, read-out: EC50 ± SD (CPER)
# [30] = system: Tacaribe virus (TCRV), strain TRVL 11573; test: microbe, parasite or virus in culture; details: Mammarenavirus tacaribeense, Vero 76, read-out: EC50 ± SD (CPER)
# [31] = in vitro; details: monkey, CC50 ± SD; remark: listed apart in the source
# [32] = hamster, in vivo, po, 25 mg/kg/day
# [33] = hamster, in vivo, po, 50 mg/kg/day
# [34] = hamster, in vivo, po, 100 mg/kg/day
compound,measurement,setting,value
"NC(=O)c1nccn([C@@H]2O[C@H](CO)[C@@H](O)[C@H]2O)c1=O [T-1106, 3,4-dihydro-3-oxo-4-β-D-ribofuranosyl-2-pyrazinecarboxamide]","Survival compared to placebo, log-rank analysis","[1]; hamster, in vivo, 100 mg/kg/day",failed to significantly protect
same,ED50 (survival),"[1]; hamster, in vivo, po",441 µmol/kg/day
same,ALT ± SD,[1]; [32],1354 ± 961 international units per liter
same,"Mean virus titer ± SD, liver",[1]; [32],7.7 ± 0.6 (100)
same,"Mean virus titer ± SD, serum",[1]; [32],6.5 ± 1.1 (100)
same,"Percentage of animals with detectable virus, liver",[1]; [32],7.7 ± 0.6 (100) %
same,"Percentage of animals with detectable virus, serum",[1]; [32],6.5 ± 1.1 (100) %
same,"Mean virus titer ± SD, liver",[1]; [33],7.1 ± 1.5 (100)
same,"Mean virus titer ± SD, serum",[1]; [33],< 5.4 ± 2.1 (80)
same,"Percentage of animals with detectable virus, liver",[1]; [33],7.1 ± 1.5 (100) %
same,"Percentage of animals with detectable virus, serum",[1]; [33],< 5.4 ± 2.1 (80) %
same,ALT ± SD,[1]; [34],961 ± 1071 international units per liter
same,"Mean virus titer ± SD, liver",[1]; [34],7.4 ± 0.4 (100)
same,"Mean virus titer ± SD, serum",[1]; [34],6.5 ± 1.0 (100)
same,"Percentage of animals with detectable virus, liver",[1]; [34],7.4 ± 0.4 (100) %
same,"Percentage of animals with detectable virus, serum",[1]; [34],6.5 ± 1.0 (100) %
same,Survival outcome,[1]; n=10,4 of the 10
same,Animals protected (survival),"[1]; n=10, 25 mg/kg/day",20%
same,Animals protected (survival),"[1]; n=10, 50 mg/kg/day",40%
same,SI (CC50/EC90),[2],>33
same,EC90,[3],576 ± 450 µM
same,SI (CC50/EC50),[4],>6
same,ED50 (survival),[5],12 µmol/kg/day
same,"Mean virus titer ± SD, liver",[5],< 4.3 ± 2.1 (40)
same,Potency relative to T-705 based on ED50,[5],9.4 times
same,Survival compared to placebo,[5],Significant protection
same,ALT ± SD,"[5]; po, 25 mg/kg/day",251 ± 438 international units per liter
same,"Mean virus titer ± SD, liver","[5]; po, 25 mg/kg/day",< 4.6 ± 1.7 (80)
same,"Mean virus titer ± SD, serum","[5]; po, 25 mg/kg/day",< 4.8 ± 2.9 (60)
same,"Percentage of animals with detectable virus, liver","[5]; po, 25 mg/kg/day",< 4.6 ± 1.7 (80) %
same,"Percentage of animals with detectable virus, serum","[5]; po, 25 mg/kg/day",< 4.8 ± 2.9 (60) %
same,ALT ± SD,"[5]; po, 50 mg/kg/day",802 ± 1149 international units per liter
same,"Mean virus titer ± SD, liver","[5]; po, 50 mg/kg/day",< 4.9 ± 1.5 (80)
same,"Mean virus titer ± SD, serum","[5]; po, 50 mg/kg/day",< 3.9 ± 2.2 (40)
same,"Percentage of animals with detectable virus, liver","[5]; po, 50 mg/kg/day",< 4.9 ± 1.5 (80) %
same,"Percentage of animals with detectable virus, serum","[5]; po, 50 mg/kg/day",< 3.9 ± 2.2 (40) %
same,ALT ± SD,"[5]; po, 100 mg/kg/day",446 ± 959 international units per liter
same,"Mean virus titer ± SD, serum","[5]; po, 100 mg/kg/day",< 3.6 ± 2.6 (40)
same,"Percentage of animals with detectable virus, liver","[5]; po, 100 mg/kg/day",< 4.3 ± 2.1 (40) %
same,"Percentage of animals with detectable virus, serum","[5]; po, 100 mg/kg/day",< 3.6 ± 2.6 (40) %
same,EC90,[6],76 ± 15 µM
same,EC50,[7],111 ± 58 µM
same,SI (CC50/EC50),[8],>24
same,Greater sensitivity of RVFV to inhibitory activity,[9],~ 5 times
same,"Inhibitory concentrations, range",[9],76 to 743 µM
same,EC50,"[9]; read-out: EC50 values, range (CPE reduction assay)",111 to 743 µM
same,EC90,"[9]; read-out: EC90 values, range (VYR)",76 to 576 µM
same,SI (CC50/EC90),[10],>49
same,ED50 (survival),[11],201 µmol/kg/day
same,SI (CC50/EC50),[12],>24
same,SI (CC50/EC90),[13],>25
same,EC90,[14],296 ± 273 µM
same,EC90,[15],114 ± 28 µM
same,SI (CC50/EC50),[16],>29
same,Liver tissue:plasma ratio relative to T-705,[17],~ 50 fold
same,SI (CC50/EC50),[18],>33
same,EC90,[19],173 ± 93 µM
same,EC50,[20],152 ± 13 µM
same,SI (CC50/EC90),[21],>13
same,SI (CC50/EC50),[22],>5
same,EC50,[23],154 ± 39 µM
same,CC50,[24],> 3720 µM
same,SI (CC50/EC90),[25],>21
same,EC50,[26],743 ± 297 µM
same,EC90,[27],146 ± 129 µM
same,SI (CC50/EC90),[28],>6
same,EC50,[29],128 ± 44 µM
same,EC50,[30],619 ± 205 µM
same,CC50,[31],> 3720 µM
